± gives the standard deviation of the averaged measurements.
How the values were obtained:
Assay in all cases: level (log10 ratio to DMSO vehicle control); higher = higher biomarker level / cell amount than vehicle control
Conditions in all cases: in DMSO
[1] = compound: O=C(O)CCC(F)(F)C(F)(F)C(F)(F)F [3:3 Fluorotelomer carboxylic acid]
Protocol: (§1)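 BioMAP Diversity Plus panel of 12 human primary cell co-culture systems (3C, 4H, LPS, SAg, BT, BF4T, BE3C, CASM3C, HDF3CGF, KF3CT, MyoF, Mphg). Compounds were added 1 h before stimulation and left for 24 h (MyoF 48 h; BT 72 h for soluble read-outs or 6 d for IgG). Biomarkers were read by ELISA, cytotoxicity by SRB, PBMC viability and proliferation by Alamar Blue. Each well value was divided by the mean of 8 DMSO control wells on the same plate and log10 transformed; duplicate blinded samples were tested at 4 concentrations.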

[2] = compound: C=CC(=O)OCCC(F)(F)C(F)(F)C(F)(F)C(F)(F)F [2-(Perfluorobutyl)ethyl acrylate]
Protocol: as §1

[3] = compound: O=S(=O)(O)C(F)(F)C(F)(F)C(F)(F)C(F)(F)C(F)(F)C(F)(F)C(F)(F)C(F)(F)F [Potassium perfluorooctanesulfonate]
Protocol: as §1

Azathioprine = compound: Cn1cnc([N+](=O)[O-])c1Sc1ncnc2[nH]cnc12 [Azathioprine]
Protocol: as §1

[4] = compound: FC(F)(F)C(F)(F)C(F)(F)C(F)(F)C(F)(F)C(F)(F)C(F)(F)CCI [1-Iodo-1H,1H,2H,2H-perfluorononane]
Protocol: as §1

[5] = compound: O=S(=O)(O)C(F)(F)C(F)(F)C(F)(F)C(F)(F)C(F)(F)C(F)(F)C(F)(F)C(F)(F)F [Perfluorooctanesulfonic acid]
Protocol: as §1

| Test System | level (log10) ([1]; 6700 nM) | level (log10) ([1]; 20000 nM) | level (log10) ([1]; 60000 nM) | level (log10) ([2]; 6700 nM) | level (log10) ([2]; 20000 nM) | level (log10) ([2]; 60000 nM) | level (log10) ([3]; 6700 nM) | level (log10) ([3]; 20000 nM) | level (log10) ([3]; 60000 nM) | level (log10) (Azathioprine; 1400 nM) | level (log10) (Azathioprine; 4200 nM) | level (log10) (Azathioprine; 13000 nM) | level (log10) (Azathioprine; 38000 nM) | level (log10) ([4]; 6700 nM) | level (log10) ([4]; 20000 nM) | level (log10) ([5]; 6700 nM) | level (log10) ([5]; 20000 nM) | level (log10) ([5]; 60000 nM) |
| --- | --- | --- | --- | --- | --- | --- | --- | --- | --- | --- | --- | --- | --- | --- | --- | --- | --- | --- |
| BF4T:CD90 | -0.0025 ± 0.005 | -0.009 ± 0.0014 | -0.0085 ± 0.013 | -0.017 ± 0.0028 | -0.025 ± 0.0099 | -0.016 ± 0.0071 | 0.0085 ± 0.0064 | -0.0075 ± 0.00071 | 0.0075 ± 0.019 | -0.0025 ± 0.00071 | -0.0075 ± 0.0035 | -0.0305 ± 0.023 | -0.024 ± 0.018 | -0.0245 ± 0.021 | -0.0345 ± 0.0021 | -0.0015 ± 0.011 | 0.005 ± 0.0014 | 0.0135 ± 0.0021 |
| LPS:IL-1alpha | -0.005 ± 0.0071 | -0.0245 ± 0.0078 | -0.0095 ± 0.029 | 0.009 ± 0.023 | 0.031 ± 0.013 | 0.02 ± 0.021 | -0.022 ± 0.0014 | -0.0195 ± 0.011 | -0.0145 ± 0.012 | 0.0405 ± 0.067 | 0.04 ± 0.064 | 0.0165 ± 0.0064 | -0.0185 ± 0.00071 | -0.008 ± 0.041 | 0.031 ± 0.016 | 0.0245 ± 0.043 | 0.023 ± 0.04 | 0.0215 ± 0.0021 |
| LPS:sPGE2 | -0.0115 ± 0.0092 | -0.0165 ± 0.036 | 0.0205 ± 0.025 | -0.0675 ± 0.022 | -0.099 ± 0.0085 | -0.101 ± 0.021 | -0.033 ± 0.042 | -0.0005 ± 0.03 | -0.053 ± 0.096 | -0.0075 ± 0.033 | 0.037 | -0.022 ± 0.018 | -0.0985 ± 0.03 | -0.0095 ± 0.0021 | -0.03 ± 0.017 | 0.01 ± 0.035 | -0.0315 ± 0.0092 | -0.075 ± 0.013 |
| BF4T:PAI-I | 0.0025 ± 0.021 | -0.011 ± 0.018 | 0.006 ± 0.0014 | -0.006 ± 0.025 | 0.007 ± 0.03 | -0.0255 ± 0.025 | 0.0015 ± 0.0092 | -0.0045 ± 0.0078 | 0.007 ± 0.04 | 0.004 ± 0.017 | -0.001 ± 0.0099 | -0.009 ± 0.0014 | -0.005 ± 0.013 | -0.0005 ± 0.013 | -0.013 ± 0.011 | -0.002 ± 0.0085 | -0.0135 ± 0.0021 | -0.02 ± 0.052 |
